Reference: ChEMBL document CHEMBL5321272 (J Med Chem, 2023)
Calls of active or inactive are those of the source. No cut-off for these calls is given here.

What was measured:
[1] = Half life in ICR mouse at 10 mg/kg, po; format: ADME, organism-based; conditions: in vivo
[2] = AUC (last) in ICR mouse at 10 mg/kg, po; format: ADME, organism-based; design: dose 10 mg/kg, route po; conditions: in vivo
[3] = MRT (infinity) in ICR mouse at 10 mg/kg, po; format: ADME, organism-based; conditions: in vivo
[4] = molecular target: AMPK alpha2/beta1/gamma1 (Homo sapiens, UniProt P54619+P54646+Q9Y478); assay: Inhibition of AMPK alpha2beta1gamma1 (unknown origin) by HTRF assay; format: protein-complex assay
Chain of AMPK alpha2/beta1/gamma1 (P54646 whole entry): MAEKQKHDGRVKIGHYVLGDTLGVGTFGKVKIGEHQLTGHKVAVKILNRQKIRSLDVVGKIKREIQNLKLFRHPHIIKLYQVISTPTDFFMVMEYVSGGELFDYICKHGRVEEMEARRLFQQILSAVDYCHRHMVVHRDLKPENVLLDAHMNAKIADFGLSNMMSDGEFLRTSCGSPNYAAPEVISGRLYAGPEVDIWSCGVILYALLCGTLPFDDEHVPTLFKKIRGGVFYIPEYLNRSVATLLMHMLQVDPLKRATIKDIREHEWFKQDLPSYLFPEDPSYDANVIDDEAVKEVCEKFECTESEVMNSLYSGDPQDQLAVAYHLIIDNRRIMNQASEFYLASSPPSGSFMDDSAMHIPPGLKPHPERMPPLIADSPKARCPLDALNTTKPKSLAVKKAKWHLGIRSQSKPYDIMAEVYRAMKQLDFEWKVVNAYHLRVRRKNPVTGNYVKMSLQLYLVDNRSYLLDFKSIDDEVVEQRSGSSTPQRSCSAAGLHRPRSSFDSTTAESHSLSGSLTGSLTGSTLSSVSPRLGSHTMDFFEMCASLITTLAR
Chain of AMPK alpha2/beta1/gamma1 (P54619 whole entry): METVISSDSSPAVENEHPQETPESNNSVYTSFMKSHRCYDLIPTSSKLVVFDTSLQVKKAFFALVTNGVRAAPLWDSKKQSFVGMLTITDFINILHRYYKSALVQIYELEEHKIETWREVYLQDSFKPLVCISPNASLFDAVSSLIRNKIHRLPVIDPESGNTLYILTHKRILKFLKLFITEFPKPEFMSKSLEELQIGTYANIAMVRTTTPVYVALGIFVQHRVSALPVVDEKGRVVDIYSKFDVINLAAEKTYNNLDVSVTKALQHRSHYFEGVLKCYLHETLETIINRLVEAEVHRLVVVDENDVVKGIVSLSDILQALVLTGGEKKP
Chain of AMPK alpha2/beta1/gamma1 (Q9Y478 whole entry): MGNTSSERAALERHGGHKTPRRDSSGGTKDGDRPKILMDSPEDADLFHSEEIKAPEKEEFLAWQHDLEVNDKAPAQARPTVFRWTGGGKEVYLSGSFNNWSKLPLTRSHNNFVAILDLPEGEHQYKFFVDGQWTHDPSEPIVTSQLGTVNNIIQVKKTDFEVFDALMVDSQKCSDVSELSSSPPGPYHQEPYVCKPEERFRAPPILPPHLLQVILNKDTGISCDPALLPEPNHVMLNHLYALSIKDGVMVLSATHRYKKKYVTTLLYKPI

[5] = molecular target: Hepatocyte growth factor receptor (Homo sapiens, UniProt P08581); assay: Inhibition of MET (unknown origin) by HTRF assay
Chain of Hepatocyte growth factor receptor (P08581 whole entry): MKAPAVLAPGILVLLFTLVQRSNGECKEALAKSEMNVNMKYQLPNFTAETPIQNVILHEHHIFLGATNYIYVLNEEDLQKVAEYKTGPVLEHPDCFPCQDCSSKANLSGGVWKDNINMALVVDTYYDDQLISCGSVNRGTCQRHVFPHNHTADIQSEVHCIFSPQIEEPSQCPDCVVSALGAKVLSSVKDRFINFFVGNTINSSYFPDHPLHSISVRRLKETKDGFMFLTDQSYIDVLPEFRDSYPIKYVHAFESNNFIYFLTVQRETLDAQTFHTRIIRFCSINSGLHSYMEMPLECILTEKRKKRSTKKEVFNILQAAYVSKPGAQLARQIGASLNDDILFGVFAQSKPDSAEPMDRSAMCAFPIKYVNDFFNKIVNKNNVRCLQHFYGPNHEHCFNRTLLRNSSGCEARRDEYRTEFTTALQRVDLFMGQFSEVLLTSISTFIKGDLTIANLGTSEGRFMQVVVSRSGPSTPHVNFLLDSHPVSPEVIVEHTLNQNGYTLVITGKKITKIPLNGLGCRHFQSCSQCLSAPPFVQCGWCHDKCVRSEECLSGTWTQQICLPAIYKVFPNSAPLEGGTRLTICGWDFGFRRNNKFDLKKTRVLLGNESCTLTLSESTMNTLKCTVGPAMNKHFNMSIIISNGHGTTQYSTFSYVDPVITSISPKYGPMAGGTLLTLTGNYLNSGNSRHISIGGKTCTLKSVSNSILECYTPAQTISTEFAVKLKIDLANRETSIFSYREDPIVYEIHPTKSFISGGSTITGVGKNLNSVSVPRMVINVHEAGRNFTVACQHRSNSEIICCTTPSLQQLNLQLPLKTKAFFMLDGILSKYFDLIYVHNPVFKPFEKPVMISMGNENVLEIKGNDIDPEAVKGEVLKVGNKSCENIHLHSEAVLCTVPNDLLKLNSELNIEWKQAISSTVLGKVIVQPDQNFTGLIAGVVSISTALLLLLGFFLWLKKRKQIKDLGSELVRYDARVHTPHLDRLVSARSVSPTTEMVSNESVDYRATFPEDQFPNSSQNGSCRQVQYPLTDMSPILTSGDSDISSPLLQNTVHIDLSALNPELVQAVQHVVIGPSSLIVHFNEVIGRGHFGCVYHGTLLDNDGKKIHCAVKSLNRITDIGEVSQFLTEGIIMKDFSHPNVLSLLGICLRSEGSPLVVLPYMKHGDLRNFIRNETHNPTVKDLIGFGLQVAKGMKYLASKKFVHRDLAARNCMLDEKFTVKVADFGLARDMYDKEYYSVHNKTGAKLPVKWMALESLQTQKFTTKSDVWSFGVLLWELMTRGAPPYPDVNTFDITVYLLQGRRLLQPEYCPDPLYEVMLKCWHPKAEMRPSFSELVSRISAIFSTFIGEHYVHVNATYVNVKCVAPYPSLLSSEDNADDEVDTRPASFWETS

[6] = Selectivity ratio of IC50 for BMX (unknown origin) to IC50 for FLT3-ITD mutant (unknown origin)
[7] = Selectivity ratio of IC50 for IGF1R (unknown origin) to IC50 for FLT3-ITD mutant (unknown origin)
[8] = Selectivity ratio of IC50 for LYN (unknown origin) to IC50 for FLT3-ITD mutant (unknown origin)
[9] = Selectivity ratio of IC50 for EGFR (unknown origin) to IC50 for FLT3-ITD mutant (unknown origin)
[10] = Selectivity ratio of IC50 for P70S6K (unknown origin) to IC50 for FLT3-ITD mutant (unknown origin)
[11] = Selectivity ratio of IC50 for PKA (unknown origin) to IC50 for FLT3-ITD mutant (unknown origin)
[12] = Selectivity ratio of IC50 for CDK2 (unknown origin) to IC50 for FLT3-ITD mutant (unknown origin)
[13] = Selectivity ratio of IC50 for TAK1 (unknown origin) to IC50 for FLT3-ITD mutant (unknown origin)
[14] = Selectivity ratio of IC50 for ASK1 (unknown origin) to IC50 for FLT3-ITD mutant (unknown origin)
[15] = Selectivity ratio of IC50 for PAK1 (unknown origin) to IC50 for FLT3-ITD mutant (unknown origin)
[16] = tested on: MOLM-13; assay: Antiproliferative activity against human MOLM-13 cells assessed as reduction in cell viability incubated for 72 hrs by CellTiter 96 Aqueous One Solution Cell Proliferation Assay; format: functional, cell-based
[17] = tested on: JeKo-1; assay: Antiproliferative activity against human JeKo-1 cells assessed as reduction in cell viability incubated for 72 hrs by CellTiter 96 Aqueous One Solution Cell Proliferation Assay; format: functional, cell-based; conditions: JeKo-1, 72 h
[18] = molecular target: Voltage-gated inwardly rectifying potassium channel KCNH2 (Homo sapiens, UniProt Q12809); assay: Inhibition of hERG expressed in HEK293 cells assessed as inhibition of channel current amplitude by whole cell patch clamp analysis; format: toxicity, cell-based
Chain of Voltage-gated inwardly rectifying potassium channel KCNH2 (Q12809 whole entry): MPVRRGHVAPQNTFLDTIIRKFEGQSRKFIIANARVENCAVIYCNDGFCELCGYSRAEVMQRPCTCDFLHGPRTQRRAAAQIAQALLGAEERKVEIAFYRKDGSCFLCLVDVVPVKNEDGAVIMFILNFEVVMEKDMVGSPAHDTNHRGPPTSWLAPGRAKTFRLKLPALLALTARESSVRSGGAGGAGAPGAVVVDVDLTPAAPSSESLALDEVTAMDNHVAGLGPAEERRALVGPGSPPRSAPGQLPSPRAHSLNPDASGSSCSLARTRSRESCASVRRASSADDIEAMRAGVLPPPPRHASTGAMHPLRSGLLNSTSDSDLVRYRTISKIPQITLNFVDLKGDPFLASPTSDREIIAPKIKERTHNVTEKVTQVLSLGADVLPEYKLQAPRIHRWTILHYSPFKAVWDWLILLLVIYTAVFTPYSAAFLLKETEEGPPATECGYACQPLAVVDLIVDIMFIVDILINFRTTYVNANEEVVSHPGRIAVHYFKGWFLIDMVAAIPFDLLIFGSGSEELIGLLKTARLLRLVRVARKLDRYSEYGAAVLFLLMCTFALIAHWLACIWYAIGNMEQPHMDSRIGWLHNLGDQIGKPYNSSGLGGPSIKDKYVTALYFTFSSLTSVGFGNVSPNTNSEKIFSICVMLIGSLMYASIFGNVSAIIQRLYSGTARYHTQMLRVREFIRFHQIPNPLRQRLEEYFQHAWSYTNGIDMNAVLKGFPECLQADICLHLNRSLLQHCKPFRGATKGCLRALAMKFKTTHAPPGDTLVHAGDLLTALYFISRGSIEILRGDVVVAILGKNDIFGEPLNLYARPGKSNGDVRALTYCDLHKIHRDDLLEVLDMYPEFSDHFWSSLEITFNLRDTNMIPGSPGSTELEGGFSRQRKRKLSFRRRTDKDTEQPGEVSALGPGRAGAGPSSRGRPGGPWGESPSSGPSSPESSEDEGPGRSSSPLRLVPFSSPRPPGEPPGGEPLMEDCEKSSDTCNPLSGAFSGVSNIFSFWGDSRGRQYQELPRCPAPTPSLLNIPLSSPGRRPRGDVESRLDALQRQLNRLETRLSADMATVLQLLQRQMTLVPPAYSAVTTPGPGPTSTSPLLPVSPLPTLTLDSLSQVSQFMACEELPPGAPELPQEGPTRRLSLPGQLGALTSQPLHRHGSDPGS

[19] = molecular target: Receptor-type tyrosine-protein kinase FLT3 (Homo sapiens) (UniProt P36888); assay: Inhibition of FLT3 in human MV4-11 cells assessed as inhibition of FLT3 phosphorylation measured after 90 mins by western blot analysis; format: cell-based; conditions: dose 20-100 nM
Chain of Receptor-type tyrosine-protein kinase FLT3 (Homo sapiens) (P36888 whole entry): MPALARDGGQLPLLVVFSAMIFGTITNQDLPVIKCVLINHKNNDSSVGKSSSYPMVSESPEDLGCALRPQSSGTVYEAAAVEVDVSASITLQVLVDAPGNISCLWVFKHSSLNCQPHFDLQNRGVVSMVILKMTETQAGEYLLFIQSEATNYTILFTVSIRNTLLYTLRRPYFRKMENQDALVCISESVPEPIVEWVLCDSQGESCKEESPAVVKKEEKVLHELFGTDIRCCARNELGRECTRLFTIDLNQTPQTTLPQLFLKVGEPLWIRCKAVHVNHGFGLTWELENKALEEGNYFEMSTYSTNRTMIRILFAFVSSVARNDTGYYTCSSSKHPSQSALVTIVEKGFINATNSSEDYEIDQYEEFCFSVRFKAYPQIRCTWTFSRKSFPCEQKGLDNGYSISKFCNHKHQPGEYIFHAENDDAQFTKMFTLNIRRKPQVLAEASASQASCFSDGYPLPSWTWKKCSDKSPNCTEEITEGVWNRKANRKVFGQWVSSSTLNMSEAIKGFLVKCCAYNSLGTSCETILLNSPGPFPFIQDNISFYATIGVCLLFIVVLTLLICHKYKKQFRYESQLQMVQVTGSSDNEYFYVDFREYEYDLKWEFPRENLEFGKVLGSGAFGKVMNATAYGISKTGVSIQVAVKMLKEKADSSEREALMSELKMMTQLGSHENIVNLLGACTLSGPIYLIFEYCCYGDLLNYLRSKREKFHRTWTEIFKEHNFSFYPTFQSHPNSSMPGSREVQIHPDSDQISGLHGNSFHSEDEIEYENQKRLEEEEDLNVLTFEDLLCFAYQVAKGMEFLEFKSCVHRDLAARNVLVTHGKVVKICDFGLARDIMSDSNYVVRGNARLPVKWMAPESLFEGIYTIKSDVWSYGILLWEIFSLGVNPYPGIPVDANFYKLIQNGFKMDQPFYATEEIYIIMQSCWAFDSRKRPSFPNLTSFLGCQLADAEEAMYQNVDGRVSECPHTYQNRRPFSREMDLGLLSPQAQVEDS

[20] = molecular target: Receptor-type tyrosine-protein kinase FLT3 (Homo sapiens) (UniProt P36888); assay: Inhibition of FLT3 in human MV4-11 cells assessed as inhibition of ERK phosphorylation at Tyr204 residue measured after 90 mins by western blot analysis; format: cell-based; conditions: dose 20-100 nM
[21] = molecular target: Receptor-type tyrosine-protein kinase FLT3 (Homo sapiens) (UniProt P36888); assay: Inhibition of FLT3 in human MV4-11 cells assessed as inhibition of FLT3 phosphorylation at 20 nM measured after 90 mins by western blot analysis; format: cell-based
[22] = molecular target: Receptor-type tyrosine-protein kinase FLT3 (Homo sapiens) (UniProt P36888); assay: Inhibition of FLT3 in human MV4-11 cells assessed as inhibition of STAT5 phosphorylation at Tyr694 residue at 20 nM measured after 90 mins by western blot analysis; format: cell-based
[23] = molecular target: T1, Serine/threonine-protein kinase Chk1 (Homo sapiens) (UniProt O14757); assay: Inhibition of CHK1 in human MV4-11 cells assessed as downregulation of c-Myc protein expression at 50 to 200 nM measured after 90 mins by western blot analysis; format: cell-based; conditions: dose 50-200 nM
T1 sequence (whole entry): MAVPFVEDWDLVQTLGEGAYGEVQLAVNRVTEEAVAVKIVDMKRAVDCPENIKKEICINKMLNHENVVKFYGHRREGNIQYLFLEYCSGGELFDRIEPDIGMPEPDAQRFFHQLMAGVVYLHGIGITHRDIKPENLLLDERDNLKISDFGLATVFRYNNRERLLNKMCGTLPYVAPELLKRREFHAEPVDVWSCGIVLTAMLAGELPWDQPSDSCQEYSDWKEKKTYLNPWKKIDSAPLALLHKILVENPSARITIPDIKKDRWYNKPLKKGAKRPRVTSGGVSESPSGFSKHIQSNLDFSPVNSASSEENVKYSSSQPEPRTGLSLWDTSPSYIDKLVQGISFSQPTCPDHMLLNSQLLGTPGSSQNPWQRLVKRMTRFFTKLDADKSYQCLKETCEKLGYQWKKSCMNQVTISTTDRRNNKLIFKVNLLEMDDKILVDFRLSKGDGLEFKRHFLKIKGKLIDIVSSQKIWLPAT

[24] = tested on: MV4-11; assay: Antitumor activity against human MV4-11 cells xenografted in nu/nu mouse assessed as inhibition of tumor growth administered orally qd for 22 days; format: functional; conditions: dose 1-3 mg/kg, route po, time 22.0 day
[25] = tested on: MV4-11; assay: Antitumor activity against human MV4-11 cells xenografted in nu/nu mouse assessed as inhibition of tumor growth rate at 3 mg/kg, po qd for 22 days; format: functional; conditions: MV4-11, 528 h, time 22 day
[26] = tested on: MV4-11; assay: Antitumor activity against human MV4-11 cells xenografted in nu/nu mouse assessed as reduction in tumor weight at 3 mg/kg, po qd for 22 days; format: functional, organism-based; conditions: time 22.0 day
[27] = tested on: MOLM-13; assay: Antitumor activity against human MOLM-13 cells xenografted in NSG mouse assessed as prolongation of animal's survival at 15 mg/kg, po qd for 26 days; format: functional, organism-based; conditions: time 26.0 day
[28] = Toxicity against NSG mouse xenografted with human MOLM-13 cells assessed as body weight loss at 15 to 30 mg/kg, po qd for 26 days; format: organism-based; conditions: in vivo, 624 h, dose 15-30 mg/kg, time 26 day
[29] = Acute toxicity in ICR mouse assessed as morphological changes in heart at 300 mg/kg, ig and measured for 7 days by Hematoxylin-Eosin staining based analysis; format: organism-based; conditions: in vivo, po, 168 h, time 7 day
[30] = Acute toxicity in ICR mouse assessed as morphological changes in spleen at 300 mg/kg, ig and measured for 7 days by Hematoxylin-Eosin staining based analysis; format: organism-based; conditions: in vivo, po, 168 h, time 7 day
[31] = Acute toxicity in ICR mouse assessed as morphological changes in lungs at 300 mg/kg, ig and measured for 7 days by Hematoxylin-Eosin staining based analysis; format: organism-based; conditions: in vivo, po, 168 h, time 7 day
[32] = Acute toxicity in ICR mouse assessed as morphological changes in kidney at 300 mg/kg, ig and measured for 7 days by Hematoxylin-Eosin staining based analysis; format: organism-based; conditions: in vivo, po, 168 h, time 7 day
[33] = molecular target: T2, Serine/threonine-protein kinase Chk1 (Homo sapiens, UniProt O14757)
T2 sequence (O14757 whole entry): T1 sequence (whole entry)
Description: Inhibition of CHK1 (unknown origin) using peptide substrate S1 and ATP as substrate incubated for 1 hr by HTRF assay

[34] = tested on: BaF3; assay: cells; conditions: Mus musculus, BaF3, 72 h
Description: Antiproliferative activity against mouse BaF3 cells harboring FLT3-ITD-N701K mutation assessed as reduction in cell viability incubated for 72 hrs by CellTiter 96 Aqueous One Solution Cell Proliferation Assay

`CC(C)(O)CC(=O)N1CCc2cc(Nc3ncc(C(F)(F)F)c(N[C@H]4CC[C@@H](N)CC4)n3)ccc2C1` showed a half-life [1] of 5.6 h, an AUC(0-t) [2] of 1570 ng·h/mL and an MRT inf [3] of 5.73 h. It also gave an IC50 [4] of 18.4 nM, an IC50 [5] of over 10000 nM and a Ratio IC50 [6] of over 100. For the same compound, the Ratio IC50 [7] was over 100, the Ratio IC50 [8] was over 100 and the Ratio IC50 [9] was over 100. It also gave a Ratio IC50 [10] of over 100, a Ratio IC50 [11] of over 100 and a Ratio IC50 [12] of over 100. For the same compound, the Ratio IC50 [13] was over 100, the Ratio IC50 [14] was over 100 and the Ratio IC50 [15] was over 100. For the same compound, the Activity [16] was “Active”, the IC50 [17] was 260 nM and the IC50 [18] was 58400 nM. The inhibition [19] was “Dose-Dependent Effect”, the inhibition [20] was “Dose-Dependent Effect” and the inhibition [21] was 100%. The inhibition [22] was 100%, the inhibition [23] was “Active” and the Activity [24] was “Dose-Dependent Effect”. For the same compound, the inhibition in vivo at 3 mg/kg [25] was 52.8%, the Activity [26] was “Active” and the Activity [27] was “inactive”. The Activity [28] was “Non-Toxic”, the Activity [29] was “Non-Toxic” and the Activity [30] was “Non-Toxic”. For the same compound, the Activity [31] was “Non-Toxic”, the Activity [32] was “Non-Toxic” and the IC50 [33] was 9.8 nM. For the same compound, the IC50 [34] was 8.2 nM.
